Source: patent US9458465B2, “Compositions and methods to modulate cell membrane resealing” (RUTGERS, THE STATE UNIVERSITY OF NEW JERSEY, priority 2007, dated 2016)

Tests used:
[1] = tested on: HEK293 cells; experiment: LDH release after glass microbead damage, HEK293; format: cell-based, human
Procedure: Recombinant MG53 can protect kidney cells from mechanical cell membrane damage. HEK293 cells (8×10^4) were treated with glass microbeads to induce mechanical damage (FIG. 37). Different does of recombinant human MG53 or vehicle control was applied to the samples when glass beads were added to the media. Cells were rotated on an orbital shaker and then the supernatant was analyzed for LDH levels.
Externally applied recombinant MG53 requires phosphatidylserine (PS) binding to reseal damaged membranes. HEK293 cells were treated with recombinant human MG53 or vehicle and them damaged by shaking in the presence of glass microbeads (black bars) (FIG. 40). Membrane damage is measured by LDH release from cells that is recorded by colormetric assay recorded at 488 nm. […] Thus, MG53 must be able to bind exposed PS on damaged cells in order to facilitate membrane repair. * p<0.05
HEK293 cells were treated with recombinant human MG53 or vehicle and them damaged by shaking in the presence of glass microbeads (black bars) (FIG. 41). Membrane damage is measured by LDH release from cells that is recorded by colormetric assay recorded at 488 nm. […] Thus, MG53 must be able to bind exposed PS on damaged cells in order to facilitate membrane repair. * p<0.05

[2] = tested on: FDB muscle fibers from wild type (WT) mice; experiment: FM1-43 dye entry after UV-laser damage, wild type FDB muscle fibers; format: cell-based
Procedure: (§1) FIG. 20. Protective effect of zinc on membrane repair is lost in mg53−/− skeletal muscle. (a) individual flexor digitorum brevis (FDB) muscle fibers were isolated from wild type (WT) mice (3-6 months). A strong UV laser was applied to the FDB fiber that caused local damage to the muscle (arrow). Entry of FM1-43 fluorescent dye (2.5 μM) was used as an indicator for the measurement of membrane repair capacity. The images were taken 200 s following UV irradiation (control). […] (d) Schematic diagram of zinc-binding motifs in MG53. The amino-terminus of MG53 contains two putative zinc-binding motifs: one located at the RING motif (a.a. 1-56, human cDNA), and the other located at the B-box motif (a.a. 86-117, human cDNA). The specific amino acids that participate in zinc-binding are indicated.
as §1, with “Protective” for “FIG. 20. Protective”, “To access membrane repair capacity,” for “(a)”, “months) (FIG. 20a).” for “months).”, “Summary data for panel a and b (FIG. 20c). […]” for “(d)”, “indicated (FIG. 20d).” for “indicated.”

[3] = tested on: C2C12 cells expressing GFP-MG53; experiment: Repair of acute membrane damage: translocation to microelectrode injury site; format: cell-based, murine; details: for Membrane Repair (+Zn-HPT): 2 μM Zn-HPT; for Membrane Repair (−Zn-HPT): extracellular solution with nominal free zinc
Procedure: To follow the process of intracellular vesicle translocation associated with repair of acute membrane damage, GFP-MG53 fusion protein was expressed in C2C12 myoblast cells (FIG. 21a). […]
Cell culture—The C2C12 murine myoblast cell line used for all studies was purchased from the American Type Culture Collection (Manassas, Va.). Cells were grown in a humidified environment at 37° C. and 5% CO2 in DMEM medium for C2C12 or Ham's F12 medium for CHO cells supplemented with 10% fetal bovine serum, 100 units/ml penicillin and 100 ug/ml streptomycin. In order to induce myotube differentiation, C2C12 myoblasts were grown to confluence and the medium was switched to DMEM containing 2% horse serum, penicillin (100 U/ml), streptomycin (100 μg/ml). For transient transfections, C2C12 myoblasts or CHO cells were plated at 70% confluence in glass-bottom dishes. After 24 hours, cells were transfected with plasmids described above using GeneJammer reagent (Stratagene). Cells were visualized by live cell confocal imaging at 24-48 hours after transfection or at times indicated for individual experiments. In some experiments, C2C12 myoblasts were allowed to differentiate into myotubes for the indicated time before observation.
Live cell imaging—To monitor intracellular trafficking of GFP-MG53 either CHO or C2C12 cells were cultured in glass-bottom dishes (Bioptechs Inc.) and transfected with the plasmids described above. Fluorescence images (512×512) were captured at 3.18 s/frame using a BioRad 2100 Radiance laser scanning confocal microscope with a 63×1.3NA oil immersion objective.

[4] = tested on: FDB muscle fibers from mg53−/− mice; experiment: FM1-43 dye entry after UV-laser damage, mg53−/− FDB muscle fibers; format: cell-based
Procedure: as §1
as §1, with “Protective” for “FIG. 20. Protective”, “To access membrane repair capacity,” for “(a)”, “months) (FIG. 20a).” for “months).”, “Summary data for panel a and b (FIG. 20c). […]” for “(d)”, “indicated (FIG. 20d).” for “indicated.”

[5] = tested on: mg53−/− myotubes; experiment: Membrane repair in transfected mg53−/− myotubes; format: cell-based, mice; details: transfected mg53−/− myotubes; UV injury
Description: The entry of FM4-64, a red-shifted variant of FM1-43, was used as an index of membrane repair capacity in mg53−/− myotubes transfected with GFP-MG53 and GFP-C242A. Following UV-bleaching of the green fluorescence, rapid translocation of GFP-MG53 took place at the injury site, whereas GFP-C242A remained static due to its defective oligomerization properties (FIG. 16E, 17A).
Similar defects with GFP-C29L were also observed in C2C12 myotubes (FIG. 18e, middle).

[6] = C2C12 cells, listed as GFP-C29L/C105S
[7] = C2C12 cells, listed as GFP-C105S

“phosphatidylserine [phosphatidylserine (PS), reference compound]” was tested, and the “effect on MG53 resealing of plasma membrane” value ([1]; simultaneous treatment with recombinant human MG53) was “can prevent resealing of plasma membrane”.

`c1ccc(CN(CCN(Cc2ccccn2)Cc2ccccn2)Cc2ccccn2)nc1` [TPEN, N,N,N,N-tetrakis(2-pyridyl-methyl)ethylenediamine] was tested, and the “membrane repair capacity (FM1-43 dye entry)” value ([2]; WT fibers, 40 μM TPEN) was “compromised membrane repair capacity”, the “translocation of GFP-MG53 containing vesicles toward the mechanical injury site” value ([3]; 20 μM TPEN in the extracellular solution) was “completely abolished the translocation” and the “membrane repair capacity (FM1-43 dye entry)” value ([4]; mg53−/− fibers, +TPEN) was “did not produce more entry of FM1-43 dye”.

For Thimerosal [reference compound], the “translocation of GFP-MG53 to injury sites” value ([3]; oxidizing agent Thimerosal in the extracellular solution) was “increased translocation”.

In the case of `O[C@H](CS)[C@H](O)CS` (racemic) [DTT, dithiothreitol, reference compound], the “membrane resealing (entry of FM-143 dye)” value ([2]; isolated muscle fibers, DTT in the extracellular solution) is reported as “prevents membrane resealing” and the “translocation of GFP-MG53 toward the injury site” value ([3]; reduced extracellular environment (+DTT), 5 mM DTT) is reported as “largely disrupted”.

`O=C([O-])CN(CCN(CC(=O)[O-])CC(=O)[O-])CC(=O)[O-].[Ca+2].[Na+].[Na+]` [Ca-EDTA] was tested, and the “membrane repair capacity (FM1-43 dye entry)” value ([2]; WT muscle, Ca-EDTA 100 μM) was “compromised membrane repair capacity” and the membrane repair capacity ([4]; mg53−/− muscle, Ca-EDTA) was “did not produce any significant changes in membrane repair capacity”.

B1: C242A: MG53 mutant, conserved cysteine 242 mutated into alanine (protein)
chain: MSAAPGLLRQELSCPLCLQLFDAPVTAECGHSFCRACLIRVAGEPAADGTVACPCCQAPTRPQALSTNLQLSRLVEGLAQVPQGHCEEHLDPLSIYCEQDRTLVCGVCASLGSHRGHRLLPAAEAQARLKTQLPQQKMQLQEACMRKEKTVAVLEHQLVEVEETVRQFRGAVGEQLGKMRMFLAALESSLDREAERVRGDAGVALRRELSSLNSYLEQLRQMEKVLEEVADKPQTEFLMKFALVTSRLQKILSESPPPARLDIQLPVISDDFKFQVWKKMFRALMPALEELTFDPSSAHPSLVVSSSGRRVECSDQKAPPAGEDTRQFDKAVAVVAQQLLSQGEHYWEVEVGDKPRWALGVMAADASRRGRLHAVPSQGLWLLGLRDGKILEAHVEAKEPRALRTPERPPARIGLYLSFADGVLAFYDASNPDVLTPIFSFHERLPGPVYPIFDVCWHDKGKNAQPLLLVGPEQEQA
modifications: left off: large carriers
notes: MG53 mutant, conserved cysteine 242 mutated into alanine
With B1 the “sarcolemmal membrane repair function” value ([2]; overexpression in adult wt muscle fibers, compared with GFP-MG53) was “inhibited sarcolemmal membrane repair function”, the “translocation to injury site and membrane repair function of GFP fusion protein” value ([3]; C2C12 cells, acute membrane damage) was “completely disrupted its ability to facilitate the membrane repair process” and the “entry of FM4-64 (membrane repair capacity)” value [5] was “not able to restore membrane integrity following injury”.

B2: C29L/C105S: MG53 double mutant of RING motif (C29L) and B-box motif (C105S) (protein)
chain: MSAAPGLLRQELSCPLCLQLFDAPVTAELGHSFCRACLIRVAGEPAADGTVACPCCQAPTRPQALSTNLQLSRLVEGLAQVPQGHCEEHLDPLSIYCEQDRTLVSGVCASLGSHRGHRLLPAAEAQARLKTQLPQQKMQLQEACMRKEKTVAVLEHQLVEVEETVRQFRGAVGEQLGKMRMFLAALESSLDREAERVRGDAGVALRRELSSLNSYLEQLRQMEKVLEEVADKPQTEFLMKFCLVTSRLQKILSESPPPARLDIQLPVISDDFKFQVWKKMFRALMPALEELTFDPSSAHPSLVVSSSGRRVECSDQKAPPAGEDTRQFDKAVAVVAQQLLSQGEHYWEVEVGDKPRWALGVMAADASRRGRLHAVPSQGLWLLGLRDGKILEAHVEAKEPRALRTPERPPARIGLYLSFADGVLAFYDASNPDVLTPIFSFHERLPGPVYPIFDVCWHDKGKNAQPLLLVGPEQEQA
modifications: left off: large carriers
With B2 the “Membrane Repair (+Zn-HPT)” value [3, 6] was “completely defective in repair of acute membrane damage” and the “Membrane Repair (−Zn-HPT)” value [3, 6] was “completely defective in repair of acute membrane damage”.

B3: C105S: MG53 single mutation of the B-box motif (protein)
chain: MSAAPGLLRQELSCPLCLQLFDAPVTAECGHSFCRACLIRVAGEPAADGTVACPCCQAPTRPQALSTNLQLSRLVEGLAQVPQGHCEEHLDPLSIYCEQDRTLVSGVCASLGSHRGHRLLPAAEAQARLKTQLPQQKMQLQEACMRKEKTVAVLEHQLVEVEETVRQFRGAVGEQLGKMRMFLAALESSLDREAERVRGDAGVALRRELSSLNSYLEQLRQMEKVLEEVADKPQTEFLMKFCLVTSRLQKILSESPPPARLDIQLPVISDDFKFQVWKKMFRALMPALEELTFDPSSAHPSLVVSSSGRRVECSDQKAPPAGEDTRQFDKAVAVVAQQLLSQGEHYWEVEVGDKPRWALGVMAADASRRGRLHAVPSQGLWLLGLRDGKILEAHVEAKEPRALRTPERPPARIGLYLSFADGVLAFYDASNPDVLTPIFSFHERLPGPVYPIFDVCWHDKGKNAQPLLLVGPEQEQA
modifications: left off: large carriers
notes: MG53 single mutation of the B-box motif
B3 was tested, and the “Membrane Repair (+Zn-HPT)” value [3, 7] was “partial rescue of the membrane repair capacity” and the “Membrane Repair (−Zn-HPT)” value [3, 7] was “could not move to the acute injury site”.

B4: Annexin V: a phosphatidylserine (PS) binding protein (protein, UniProt P08758 2-320, looked up)
Annexin A5: AQVLRGTVTDFPGFDERADAETLRKAMKGLGTDEESILTLLTSRSNAQRQEISAAFKTLFGRDLLDDLKSELTGKFEKLIVALMKPSRLYDAYELKHALKGAGTNEKVLTEIIASRTPEELRAIKQVYEEEYGSSLEDDVVGDTSGYYQRMLVVLLQANRDPDAGIDEAQVEQDAQALFQAGELKWGTDEEKFITIFGTRSVSHLRKVFDKYMTISGFQIEETIDRETSGNLEQLLLAVVKSIRSIPAYLAETLYYAMKGAGTDDHTLIRVMVSRSEIDLFNIRKEFRKNFATSLYSMIKGDTSGDYKKALLLLCGEDD
B4 was tested, and the “effect on MG53 resealing of plasma membrane” value ([1]; excess (5:1), simultaneous with recombinant human MG53) was “can prevent resealing of plasma membrane”.
